What was measured:
Assay type in all cases: physicochemical
[1] = Forced degradation studies (thermal, thermal-humidity, light, oxidation, acid, base); conditions: for degradation of API: API alone
Source text: Each API and the final formulation (referred to as “AMX powder in sachet”) containing both APIs were also subjected to forced degradation studies. The study included stressing samples of PB (sodium phenylbutyrate) API, TURSO API, placebo, and AMX Powder in Sachet under thermal, thermal-humidity, light, oxidation, acid, or base conditions (Table 49).

[2] = Loss on Drying (LOD) testing; conditions: excipients
Protocol: After storage in sealed bottles for about one week, slight agglomeration of blends was observed.
LOD testing was performed on recovered agglomerated blend (PD2016-015-33B) after ˜2 hours of drying at 50° C. to determine the degree of moisture uptake. Results were compared against a non-agglomerated blend that had been stored in a sealed bottle (PD2016-015-29A).

[3] = Dynamic Vapor Sorption (DVS) testing
Source text: Samples of NaPB, TURSO, and modified formulation C1 blend were subjected to DVS testing to determine the magnitude of weight gain due to humidity.

[4] = Bulk density, tapped density, Hausner ratio and Carr's index; conditions: powder; calculated from bulk and tapped density
Protocol: Bulk density was calculated for each API and blend by gently pouring powder into a 25 mL graduated cylinder. Tapped density was calculated using a tapped volumeter to compact each powder using 100-tap increments until volume change was <5%. Hausner ratio and Carr's index were then calculated using bulk density and tapped density. Formulation C was selected based on flow characteristics. Carr's index, in addition to being a measure of compressibility, may also be used to determine the flow properties of a material. […] Acceptable flow property (as determined by the packaging equipment used) was a minimum of a Carr's index of under 25, with a Carr's index of below 20 being preferable.
Each API was blended and roller compacted with excipients separately to determine if the proximity of the dual APIs in the blend or granules was responsible for agglomeration. The resulting granules were then recombined and blended before filling test sachets. Bulk and tapped densities of each blend were measured prior to roller compaction. For this experiment, all silica were used at 1% W/W. Aerosil 200 was used as a negative control while Syloid 244FP and Syloid 63FP were used to remove moisture from the APIs to determine if APIs would agglomerate with reduced local levels of water. […]

[5] = Base 3 Days (1.0N NaOH, 50° C.)
[6] = Base 7 Days (1.0N NaOH, 50° C.)
[7] = Thermal-Humidity (85° C. + 1.0 mL water, 10 days)

C[C@H](CCC(=O)NCCS(=O)(=O)O)[C@H]1CC[C@H]2[C@@H]3[C@@H](O)C[C@@H]4C[C@H](O)CC[C@]4(C)[C@H]3CC[C@]12C [TUDCA API]
% RMBD, TUDCA ([1]; Acid 3 Days (1.0N HCl, 50° C.)): 99.8%
% TUDCA / % (TUDCA) Potency ([1]; Acid 3 Days (1.0N HCl, 50° C.)): 100.0%
% TUDCA remaining ([1]; Acid 3 Days (1.0N HCl, 50° C.)): 99.8%
% Total RS / % Total TUDCA Impurity ([1]; Acid 3 Days (1.0N HCl, 50° C.)): 0.23%
Sum / TUDCA Sum ([1]; Acid 3 Days (1.0N HCl, 50° C.)): 100.23
% RMBD, TUDCA ([1]; Acid 7 Days (1.0N HCl, 50° C.)): 97.0%
% TUDCA / % (TUDCA) Potency ([1]; Acid 7 Days (1.0N HCl, 50° C.)): 97.2%
% TUDCA remaining ([1]; Acid 7 Days (1.0N HCl, 50° C.)): 97.0%
% Total RS / % Total TUDCA Impurity ([1]; Acid 7 Days (1.0N HCl, 50° C.)): 0.20%
Sum / TUDCA Sum ([1]; Acid 7 Days (1.0N HCl, 50° C.)): 97.40
% Degradation Observed / Conclusion ([1]; Acid: 10 mL of 1.0N HCl per sample for 3 days at 50° C.): No significant
% RMBD, TUDCA [1, 5]: 94.9%
% TUDCA / % (TUDCA) Potency [1, 5]: 95.1%
% TUDCA remaining [1, 5]: 94.9%
% Total RS / % Total TUDCA Impurity [1, 5]: 0.22%
Sum / TUDCA Sum [1, 5]: 95.32
% RMBD, TUDCA [1, 6]: 82.6%
% TUDCA / % (TUDCA) Potency [1, 6]: 82.8%
% TUDCA remaining [1, 6]: 82.6%
% Total RS / % Total TUDCA Impurity [1, 6]: 0.18%
Sum / TUDCA Sum [1, 6]: 82.98
% TUDCA / % (TUDCA) Potency ([1]; Control): 100.2%
% Total RS / % Total TUDCA Impurity ([1]; Control): 0.22%
Sum / TUDCA Sum ([1]; Control): 100.42.
% RMBD, TUDCA ([1]; Light (1 × ICH condition)): 103.2%
% TUDCA / % (TUDCA) Potency ([1]; Light (1 × ICH condition)): 99.5%
% TUDCA remaining ([1]; Light (1 × ICH condition)): 103.2%
% Total RS / % Total TUDCA Impurity ([1]; Light (1 × ICH condition)): 0.24%
Sum / TUDCA Sum ([1]; Light (1 × ICH condition)): 99.74
% TUDCA / % (TUDCA) Potency ([1]; Light Control): 96.4%
% Total RS / % Total TUDCA Impurity ([1]; Light Control): 0.22%
Sum / TUDCA Sum ([1]; Light Control): 96.62
% Degradation Observed / Conclusion ([1]; Light: 1 × ICH condition (White light NLT 1.2 million lux hours and UV light NLT 200 W hours/m^2)): No significant
% RMBD, TUDCA ([1]; Oxidation (3% H2O2)): 98.8%
% TUDCA / % (TUDCA) Potency ([1]; Oxidation (3% H2O2)): 97.1%
% TUDCA remaining ([1]; Oxidation (3% H2O2)): 93.9%
% Total RS / % Total TUDCA Impurity ([1]; Oxidation (3% H2O2)): 1.36%
Sum / TUDCA Sum ([1]; Oxidation (3% H2O2)): 98.46
% Degradation Observed / Conclusion ([1]; Oxidation: 10 mL of 3% H2O2 per sample): ~3%
% RMBD, TUDCA ([1]; Thermal (85° C., 10 days)): 100.5%
% TUDCA / % (TUDCA) Potency ([1]; Thermal (85° C., 10 days)): 100.6%
% TUDCA remaining ([1]; Thermal (85° C., 10 days)): 100.4%
% Total RS / % Total TUDCA Impurity ([1]; Thermal (85° C., 10 days)): 0.28%
Sum / TUDCA Sum ([1]; Thermal (85° C., 10 days)): 100.88
% RMBD, TUDCA [1, 7]: 0.0%
% TUDCA remaining [1, 7]: 0%
Sum / TUDCA Sum [1, 7]: 0.00
% Degradation Observed / Conclusion ([1]; Thermal-Humidity: 85° C. + 1.0 mL water per sample for 10 days): Full degradation/
% Degradation Observed / Conclusion ([1]; Thermal: 85° C. for 10 days): No significant

OC[C@@H](O)[C@@H](O)[C@H](O)[C@@H](O)CO [sorbitol]
water uptake by loss-on-drying (LOD) testing [2]: neither exhibited massive water uptake

O=C(O)CCCc1ccccc1 [NaPB, sodium phenylbutyrate]
degradation of API ([1]; any of the forced degradation conditions studied): did not degrade
% PB / % (PB) Potency ([1]; Acid 3 Days (1.0N HCl, 50° C.)): 99.1%
% PB remaining ([1]; Acid 3 Days (1.0N HCl, 50° C.)): 99.9%
% RMBD (Relative Mass Balance Deficit), PB ([1]; Acid 3 Days (1.0N HCl, 50° C.)): 99.0%
% Total RS / % Total PB Impurity ([1]; Acid 3 Days (1.0N HCl, 50° C.)): 1.18%
Mass Balance / PB Sum ([1]; Acid 3 Days (1.0N HCl, 50° C.)): 100.28
% PB / % (PB) Potency ([1]; Acid 7 Days (1.0N HCl, 50° C.)): 99.7%
% PB remaining ([1]; Acid 7 Days (1.0N HCl, 50° C.)): 100.5%
% RMBD (Relative Mass Balance Deficit), PB ([1]; Acid 7 Days (1.0N HCl, 50° C.)): 99.6%
% Total RS / % Total PB Impurity ([1]; Acid 7 Days (1.0N HCl, 50° C.)): 1.14%
Mass Balance / PB Sum ([1]; Acid 7 Days (1.0N HCl, 50° C.)): 100.84
% PB remaining [1, 5]: 99.7%
% RMBD (Relative Mass Balance Deficit), PB [1, 5]: 98.8%
% Total RS / % Total PB Impurity [1, 5]: 1.11%
Mass Balance / PB Sum [1, 5]: 100.01
% PB / % (PB) Potency [1, 6]: 99.8%
% PB remaining [1, 6]: 100.6%
% RMBD (Relative Mass Balance Deficit), PB [1, 6]: 99.6%
% Total RS / % Total PB Impurity [1, 6]: 1.10%
Mass Balance / PB Sum [1, 6]: 100.90
% PB / % (PB) Potency ([1]; Control): 99.2%
% Total RS / % Total PB Impurity ([1]; Control): 2.07%
Mass Balance / PB Sum ([1]; Control): 101.27
% PB / % (PB) Potency ([1]; Light (1 × ICH condition)): 98.3%
% PB remaining ([1]; Light (1 × ICH condition)): 99.3%
% RMBD (Relative Mass Balance Deficit), PB ([1]; Light (1 × ICH condition)): 99.1%
% Total RS / % Total PB Impurity ([1]; Light (1 × ICH condition)): 0.74%
Mass Balance / PB Sum ([1]; Light (1 × ICH condition)): 99.04
% PB / % (PB) Potency ([1]; Light Control): 99.0%
% Total RS / % Total PB Impurity ([1]; Light Control): 0.96%
Mass Balance / PB Sum ([1]; Light Control): 99.96
% PB remaining ([1]; Oxidation (3% H2O2)): 99.4%
% RMBD (Relative Mass Balance Deficit), PB ([1]; Oxidation (3% H2O2)): 100.5%
% Total RS / % Total PB Impurity ([1]; Oxidation (3% H2O2)): 3.13%
Mass Balance / PB Sum ([1]; Oxidation (3% H2O2)): 101.73
% PB / % (PB) Potency ([1]; Thermal (85° C., 10 days)): 98.9%
% PB remaining ([1]; Thermal (85° C., 10 days)): 99.7%
% RMBD (Relative Mass Balance Deficit), PB ([1]; Thermal (85° C., 10 days)): 101.5%
% Total RS / % Total PB Impurity ([1]; Thermal (85° C., 10 days)): 3.93%
Mass Balance / PB Sum ([1]; Thermal (85° C., 10 days)): 102.83
% PB / % (PB) Potency [1, 7]: 99.3%
% PB remaining [1, 7]: 100.1%
% RMBD (Relative Mass Balance Deficit), PB [1, 7]: 99.2%
% Total RS / % Total PB Impurity [1, 7]: 1.16%
Mass Balance / PB Sum [1, 7]: 100.48
DVS change in mass ([3]; above 45% RH): massive fluctuations in mass
Fluctuations in mass ([3]; moisture uptake): up to 50%
Carr's index [4]: 39.2

C[C@H](CCC(=O)NCCS(=O)(=O)O)[C@H]1CC[C@H]2[C@@H]3[C@@H](O)C[C@@H]4C[C@H](O)CC[C@]4(C)[C@H]3CC[C@]12C [TURSO, tauroursodeoxycholic acid]
degradation of API ([1]; Thermal-Humidity condition): no TURSO peak was detected
degradation of API ([1]; acidic condition, by Day 7): degraded slightly
degradation of API ([1]; base condition, by Day 3): degraded slightly
degradation of API ([1]; base condition, by Day 7): ~17%
degradation of API ([1]; light condition): did not degrade
degradation of API ([1]; oxidation condition, by Day 3): degraded slightly
degradation of API ([1]; thermal condition): did not degrade
% Degradation Observed / Conclusion ([1]; Acid: 10 mL of 1.0N HCl per sample for 3 days at 50° C., listed as TURSO API): None
% Degradation Observed / Conclusion ([1]; Acid: 10 mL of 1.0N HCl per sample for 7 days at 50° C.): ~3%
% Degradation Observed / Conclusion ([1]; Base: 10 mL of 1.0N NaOH per sample for 3 days at 50° C.): ~5%
% Degradation Observed / Conclusion ([1]; Base: 10 mL of 1.0N NaOH per sample for 7 days at 50° C.): ~17%
% Degradation Observed / Conclusion ([1]; Light: 1 × ICH condition (White light NLT 1.2 million lux hours and UV light NLT 200 W hours/m^2), listed as TURSO API): None
% Degradation Observed / Conclusion ([1]; Oxidation: 10 mL of 3% H2O2 per sample, listed as TURSO API): 3%
% Degradation Observed / Conclusion ([1]; Thermal-Humidity: 85° C. + 1.0 mL water per sample for 10 days, listed as TURSO API): 100%
% Degradation Observed / Conclusion ([1]; Thermal: 85° C. for 10 days, listed as TURSO API): None
Carr's index [4]: 24.2

— patent publication US11583542B2, “Compositions of bile acids and phenylbutyrate compounds” (Amylyx Pharmaceuticals Inc., priority 2019, dated 2023)
